How the values were obtained:
drosophilas = assay: Gustatory choice (feeding preference) behavioral test with two dyes; format: in vivo, Drosophila melanogaster
Procedure: The test used measures the feeding preference in a choice with 2 possibilities materialized by two dyes, on the one hand erioglaucine (blue) and, on the other hand, sulforhodamine (red).
The erioglaucine is used at a final concentration of 5 mg/ml, dissolved in double-distilled water, pH 7.5. The sulforhodamine is used at a final concentration of 20 mg/ml, dissolved in double-distilled water, pH 7.5. The 2 dye solutions also contain sucrose fat a final concentration of 5 mM). The agonists (pH=7.5) used are added, an the final concentrations indicated on the figures, to the solution containing the erioglaucine.
To prepare a solid medium, these various compounds are added to a molten solution of agarose (0.3% final concentration, 45° C.) and deposited in a 96-well cell culture plate (Corning Incorporated, ref 3599) such that the wells alternately contain 200 μl of blue dye then 200 μl of red dye (see FIG. 4). The plates are left at ambient temperature for 2 hours in order for the agarose to solidify, and are then used for a feeding preference test.
For each behavioral test, 60 2- to 5-day-old drosophilas are deprived of food for 24 hours on cotton wool soaked with distilled water before the test and are then placed in a box containing a 96-well plate prepared as indicated above. The drosophilas are left in the dark for 2 hours, at 25° C., at a humidity of 30 to 50%. The drosophilas are then rapidly collected by anesthesia with CO2 and then frozen at −20° C. for 20 minutes. In order to determine the food intake, the flies are counted according to the color of the content of their digestive tube. The results are expressed as % of flies which have eaten a given medium relative to the total number of flies which have eaten, according to the formula: % blue=number of flies with a blue digestive tube, divided by the number of flies which have eaten (sum of the flies with a blue, violet or red digestive tube), multiplied by 100.
At least 3 independent tests were carried out for each point indicated on the figures, and the results of the tests were counted blind for the majority of the points. Only the tests in which more than […] of the flies had eaten were included in the results and in the statistical tests (T test and ANOVA). […]
The flies are counted according to the color of the content of their digestive tube.
The results are expressed as percentage of flies which have eaten a given medium, relative to the total number of flies which have eaten. % blue=N blue/(N blue+N violet+N red)×100 […]

DmX receptor (DmXR) = target: T1, DmX receptor (DmXR) (Drosophila melanogaster, UniProt Q70GQ8); assay: Pharmacological test: DmXR activation in transfected HEK cells, measured by accumulation of inositol triphosphate; settings: FIG. 1
T1 sequence (Q70GQ8 1-1073): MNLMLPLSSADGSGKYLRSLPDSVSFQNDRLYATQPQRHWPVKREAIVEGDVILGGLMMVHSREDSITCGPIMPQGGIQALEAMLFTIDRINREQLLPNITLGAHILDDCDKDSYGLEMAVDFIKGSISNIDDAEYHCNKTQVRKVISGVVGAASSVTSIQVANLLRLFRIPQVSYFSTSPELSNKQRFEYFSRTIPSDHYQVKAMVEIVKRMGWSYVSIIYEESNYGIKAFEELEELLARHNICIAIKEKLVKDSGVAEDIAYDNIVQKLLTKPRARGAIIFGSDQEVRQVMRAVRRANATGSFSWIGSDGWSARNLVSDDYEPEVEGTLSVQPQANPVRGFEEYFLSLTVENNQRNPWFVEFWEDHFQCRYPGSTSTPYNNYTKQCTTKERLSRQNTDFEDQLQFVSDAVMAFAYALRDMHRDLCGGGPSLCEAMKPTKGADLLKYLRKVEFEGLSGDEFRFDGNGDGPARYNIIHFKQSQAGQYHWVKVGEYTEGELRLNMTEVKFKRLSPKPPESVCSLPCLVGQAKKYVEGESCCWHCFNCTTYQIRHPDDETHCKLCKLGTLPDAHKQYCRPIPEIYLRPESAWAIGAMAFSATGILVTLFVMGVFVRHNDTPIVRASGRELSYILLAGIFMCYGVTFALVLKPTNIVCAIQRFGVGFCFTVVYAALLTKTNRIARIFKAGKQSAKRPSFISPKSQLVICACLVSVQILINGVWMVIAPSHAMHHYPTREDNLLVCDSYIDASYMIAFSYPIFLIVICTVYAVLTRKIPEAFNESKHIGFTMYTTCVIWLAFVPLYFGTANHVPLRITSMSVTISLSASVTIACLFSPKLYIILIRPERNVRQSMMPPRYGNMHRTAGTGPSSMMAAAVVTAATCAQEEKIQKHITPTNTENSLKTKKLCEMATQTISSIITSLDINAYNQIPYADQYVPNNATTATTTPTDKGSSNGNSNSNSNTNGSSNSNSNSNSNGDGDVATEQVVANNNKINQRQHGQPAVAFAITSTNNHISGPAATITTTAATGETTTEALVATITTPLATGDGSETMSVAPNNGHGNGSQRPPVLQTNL

N=C(N)NOCC[C@H](N)C(=O)O [L-canavanine, L-2-amino-4-(guanidinooxy)butyric acid]
effect on sugary solution in behavioral test (drosophilas; 40 mM, 5 mM sucrose): very highly repellent | concentration at which a plateau of repellent effect is reached (drosophilas; additional experiments): around 30 mM | repulsion in DmX receptor function loss mutants (drosophilas; mutant drosophilas m1 and m2 (DmXR-)): no longer have any repulsion | repellent effect in chemosensory behavioral test (drosophilas; wild-type drosophila, sugary solution (5 mM sucrose)): highly repellent | in vitro activation of the DmX receptor (DmX receptor (DmXR)): activated

From US8048683B2, “Insect repellent and process for identifying other insect repellent molecules” (Centre National de la Recherche Scientifique, priority 2006, dated 2011)
